This assay relates to episomal HPV16 DNA in W12-20850 cells. As to the kind of experiment: W-12 cellular assay (episomal HPV-16 DNA, hybrid capture). The format is cell-based, HPV16 (human papillomavirus). Particulars: Human papillomavirus 16, 96 h, four days incubation, episomal HPV-16 DNA quantified by hybrid capture, inhibition relative to untreated control cells. As for the experimental part:
Compounds of the current invention are believed useful in the treatment and/or prophylaxis of conditions and diseases associated with HPV infection. Activity mediated through HPV was determined using the following W-12 cellular assay.
The W12 cell line used contains HPV16 DNA and was derived from a low-grade cervical dysplasia tissue by Margaret Stanley and subsequently clonally selected by Paul Lambert (University of Wisconsin). One of these clones, W12-20850, contains 1000 copies of episomal HPV16 DNA and was used in the cell-based assay. W12-20850 cells were routinely cultured with a gamma-irradiated (6000 rads) feeder layer of 3T3 cells. Assays, however, were run in the absence of a 3T3 feeder layer. W12-20850 and 3T3 cells were routinely split when they were sub-confluent. W12-20850 were grown in W12 Medium which is constituted of 25% DMEM (Gibco BRL, Cat # 12430-047), 75% F12 Media (Gibco BRL, Cat # 11765-021) and 2.5% FBS. The additives include […] Adenine (Sigma, Cat # A-9795), 0.4 mg/ml Hydrocortisone (Calbiochem, Cat # 386698), […] Bovine Insulin (Sigma, Cat # I-1882), 8.4 ng/ml cholera toxin (Fluka, Cat # 26694) and 10 ng/ml EGF (Invitrogen, Cat # 13247-051). 3T3 cells were grown in DMEM containing 10% FBS. Cell lines were incubated at 37° C., in the presence of 5% CO2.
For the assay, W12-20850 cells were seeded into a 96 well plate-containing compound. Plates were incubated at 37° C. in the presence of 5% CO2, for four days. On the fourth day, cells were lysed and the amount of episomal HPV-16 DNA was quantified using a non-radioactive hybrid capture technique with HPV-16 specific capture and detection probes. The percent inhibition relative to untreated control cells was then determined.
The hybrid capture assay is run in a 96 well plate format. Hybridization plates (Nunc Maxisorb Cat # 450320) were coated with a mixture of capture probe and ReactiBind solution for at least 4 hours and then washed with 0.2)(SSC, 0.05% Tween20 (SSCT) prior to blocking with 150 μl/well of 0.2 N NaOH, 1% Igepal, 10 mg/ml hsDNA for 6-8 hours. The hybridization was carried out by mixing 271 μl of lysed cells with 45 μl of denatured detection probe in 6M guanidine isothiocyanate. To prevent evaporation, 50 μl of mineral oil was added to each well. The plate was then heated to 90° C. for 6.5 minutes and the hybridization continued at 42° C. overnight. Assay plates were washed 6 times with SSC/T. Anti-digoxigenin HRP-conjugated Ab (Boehringer Mannheim 1207733, 1:5000) was incubated in the wells for 30 min at room temperature and washed with PBS/0.05% Tween-20. SuperSignal LBA substrate (Pierce Cat # 37070) was added, and chemiluminescence was measured using Wallac 1420 Victor plate reader.

As for `O=C(Nc1ccccc1)NC1CCCc2c1[nH]c1ccc(Br)cc21` (stereo not drawn) [Example 9, N-(6-Bromo-2,3,4,9-tetrahydro-1H-carbazol-1-yl)-N′-phenylurea], the IC50 (commonly the concentration at which inhibition is half-maximal) was 548 nM.

`COc1ccc(NC(=O)NC2CCCc3c2[nH]c2ccc(Br)cc32)cc1` (stereo not drawn) [Example 10, N-(6-Bromo-2,3,4,9-tetrahydro-1H-carbazol-1-yl)-N′-(4-methoxyphenyl)urea]: the IC50 was 24000 nM. The molecule `COc1ccc(NC(=O)NC2CCCc3c2[nH]c2ccc(Br)cc32)c(C)c1` (stereo not drawn) [Example 11, N-(6-Bromo-2,3,4,9-tetrahydro-1H-carbazol-1-yl)-N′-(4-methoxy-2-methylphenyl)urea] displayed an IC50 of over 1000 nM. On to `COc1ccc(NC(=O)NC2CCCc3c2[nH]c2ccc(Br)cc32)cc1Cl` (stereo not drawn) [Example 12, N-(6-Bromo-2,3,4,9-tetrahydro-1H-carbazol-1-yl)-N′-(3-chloro-4-methoxyphenyl)urea], for which the IC50 was over 10000 nM. As to `CN(C)c1ccc(NC(=O)NC2CCCc3c2[nH]c2ccc(Br)cc32)cc1` (stereo not drawn) [Example 13, N-(6-Bromo-2,3,4,9-tetrahydro-1H-carbazol-1-yl)-N′-[4-(dimethylamino)phenyl]urea], it took 237 nM to reach half-maximal inhibition (IC50).

Take `O=C(NC1CCCc2c1[nH]c1ccc(Br)cc21)c1ccccc1` (stereo not drawn) [Example 14A, N-(6-Bromo-2,3,4,9-tetrahydro-1H-carbazol-1-yl)benzamide]: the IC50 worked out at 32 nM. The molecule `O=C(N[C@@H]1CCCc2c1[nH]c1ccc(Br)cc21)c1ccccc1` [Example 14B, N-[(1R)-6-bromo-2,3,4,9-tetrahydro-1H-carbazol-1-yl]benzamide] yielded a half-maximal inhibitory concentration (IC50) of 10 nM.

The molecule `O=C(N[C@H]1CCCc2c1[nH]c1ccc(Br)cc21)c1ccccc1` [Example 14C, N-[(1S)-6-bromo-2,3,4,9-tetrahydro-1H-carbazol-1-yl]benzamide] returned an IC50 of 5000 nM. With `O=C(Cc1ccccc1)NC1CCCc2c1[nH]c1ccc(Br)cc21` (stereo not drawn) [Example 15, N-(6-Bromo-2,3,4,9-tetrahydro-1H-carbazol-1-yl)-2-phenylacetamide], it took 580 nM to reach half-maximal inhibition (IC50). The molecule `O=C(CCc1ccccc1)NC1CCCc2c1[nH]c1ccc(Br)cc21` (stereo not drawn) [Example 16, N-(6-Bromo-2,3,4,9-tetrahydro-1H-carbazol-1-yl)-3-phenylpropanamide] returned an IC50 of 1200 nM. The molecule `O=C(/C=C/c1ccccc1)NC1CCCc2c1[nH]c1ccc(Br)cc21` (stereo not drawn) [Example 17, N-(6-Bromo-2,3,4,9-tetrahydro-1H-carbazol-1-yl)-3-phenylprop-2-enamide] gave an IC50 of 318 nM. Consider `O=C(NC1CCCc2c1[nH]c1ccc(Br)cc21)OCc1ccccc1` (stereo not drawn) [Example 18, Benzyl 6-bromo-2,3,4,9-tetrahydro-1H-carbazol-1-ylcarbamate], for which half-maximal inhibition (IC50) required 44 nM. With `O=C(NC1CCCc2c1[nH]c1ccc(Br)cc21)c1c(Cl)cccc1Cl` (stereo not drawn) [Example 19, N-(6-Bromo-2,3,4,9-tetrahydro-1H-carbazol-1-yl)-2,6-dichlorobenzamide] the figure was 5800 nM; with `O=C(NC1CCCc2c1[nH]c1ccc(Br)cc21)c1ccc(F)cc1` (stereo not drawn) [Example 20, N-(6-Bromo-2,3,4,9-tetrahydro-1H-carbazol-1-yl)-4-fluorobenzamide], 20 nM; with `COc1ccc(C(=O)NC2CCCc3c2[nH]c2ccc(Br)cc32)cc1` (stereo not drawn) [Example 21, N-(6-Bromo-2,3,4,9-tetra hydro-1H-carbazol-1-yl)-4-methoxybenzamide], 22 nM. `O=C(NC1CCCc2c1[nH]c1ccc(Br)cc21)c1ccc([N+](=O)[O-])cc1` (stereo not drawn) [Example 22, N-(6-Bromo-2,3,4,9-tetrahydro-1H-carbazol-1-yl)-4-nitrobenzamide]: the half-inhibitory concentration (IC50) came out at 45 nM.

In the case of `O=C(NC1CCCc2c1[nH]c1ccc(Br)cc21)c1ccc(Cl)cc1` (stereo not drawn) [Example 23, N-(6-Bromo-2,3,4,9-tetrahydro-1H-carbazol-1-yl)4-chlorobenzamide], the IC50 was determined as 17 nM. Consider `Cc1ccc(C(=O)NC2CCCc3c2[nH]c2ccc(Br)cc32)cc1` (stereo not drawn) [Example 24, N-(6-Bromo-2,3,4,9-tetrahydro-1H-carbazol-1-yl)-4-methylbenzamide], for which half-maximal inhibition (IC50) required 8 nM.

(Values after patent US7419997B2, “Tetrahydrocarbazole derivatives and their pharmaceutical use” (SmithKline Beecham Corporation, priority 2003, dated 2008).)
